Measurements reported in ChEMBL document CHEMBL5214990, “Novel Aryl Alkamidazole Derivatives as Multifunctional Antifungal Inhibitors: Design, Synthesis, and Biological Evaluation” (J Med Chem, 2022).
Values after ≈ are worked out from the molar mass of the structure shown. Active and inactive are the calls of the source. The calls are words filed in the database; no cut-off is given here.

What was measured:
[1] = target: T1, Lanosterol 14-alpha demethylase (Candida albicans (strain SC5314 / ATCC MYA-2876) (Yeast), UniProt P10613); experiment: Inhibition of CYP51 in Candida albicans ATCC SC5314 assessed as eburicol content at 4 ug/ml measured after 48 hrs by GC-MS analysis (reference value: 1.84%); design: scale not given: the % may be the effect or the level left; conditions: at 4 µg/mL
T1 sequence (P10613 whole entry): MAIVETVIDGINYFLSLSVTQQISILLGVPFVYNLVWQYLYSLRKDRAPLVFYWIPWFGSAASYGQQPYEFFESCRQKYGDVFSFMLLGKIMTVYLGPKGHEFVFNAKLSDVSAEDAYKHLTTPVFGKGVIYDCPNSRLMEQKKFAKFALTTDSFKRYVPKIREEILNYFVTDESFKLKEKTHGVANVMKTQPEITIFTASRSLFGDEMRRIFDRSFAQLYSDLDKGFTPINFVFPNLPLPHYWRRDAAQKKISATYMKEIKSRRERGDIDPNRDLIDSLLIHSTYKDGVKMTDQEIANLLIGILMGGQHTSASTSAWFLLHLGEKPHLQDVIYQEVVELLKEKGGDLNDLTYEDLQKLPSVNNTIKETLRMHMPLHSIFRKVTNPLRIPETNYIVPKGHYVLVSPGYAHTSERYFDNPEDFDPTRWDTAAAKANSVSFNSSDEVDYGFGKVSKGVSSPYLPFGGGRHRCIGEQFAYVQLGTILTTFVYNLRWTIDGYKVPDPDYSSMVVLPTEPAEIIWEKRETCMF

[2] = target: T1, Lanosterol 14-alpha demethylase; experiment: Inhibition of CYP51 in Candida albicans ATCC SC5314 assessed as unknown sterol content at 4 ug/ml measured after 48 hrs by GC-MS analysis; design: scale not given: the % may be the effect or the level left; conditions: at 4 µg/mL
[3] = system: Cryptococcus neoformans; experiment: Antifungal activity against Cryptococcus neoformans assessed as inhibition of fungal growth measured after 72 hrs by CLSI based liquid medium dilution method; assay type: functional
[4] = system: Candida albicans; experiment: Induction of apoptosis in Candida albicans assessed as viable cells measured after 24 hrs by Annexin V-FITC/PI staining based flow cytometry (reference value: 95.7%); assay type: functional
[5] = system: Candida tropicalis; experiment: Antifungal activity against Candida tropicalis ATCC 1369 assessed as inhibition of fungal growth measured after 72 hrs by CLSI based liquid medium dilution method; assay type: functional
[6] = system: Candida albicans; experiment: Antifungal activity against fluconazole-resistant Candida albicans 17# assessed as inhibition of fungal growth measured after 72 hrs by CLSI based liquid medium dilution method; assay type: functional
[7] = Hepatotoxicity in mouse infected with Candida albicans assessed as plasma AST level at 20 mg/kg, ip administered on days 2,4,6,8,10,12 and measured on day 14 (reference value: 53.4 +/-6.8 IU/L); assay type: toxicity, organism-based; conditions: in vivo, 312 h, time 13 day
[8] = system: Candida albicans; experiment: Induction of mitochondrial membrane depolarization in Candida albicans assessed as fungal cells with intact mitochondria measured after 24 hrs by JC-1 staining based flow cytometry (reference value: 95.9%); assay type: functional
[9] = Renal toxicity in mouse infected with Candida albicans assessed as blood urea nitrogen level at 20 mg/kg, ip administered on days 2,4,6,8,10,12 and measured on day 14 (reference value: 16.2 +/-1.6 mmol/L); assay type: organism-based; conditions: in vivo, 312 h, time 13 day
[10] = system: Mus musculus; experiment: Anti-inflammatory activity in mouse infected with Candida albicans assessed as reduction in PD-L1 expression in infection tissue at 20 mg/kg, ip administered on days 2,4,6,8,10,12 and measured on day 14 by western blot analysis; assay type: functional, organism-based; conditions: time 13.0 day
[11] = system: Candida albicans; experiment: Antifungal activity against fluconazole-resistant Candida albicans CaR assessed as inhibition of fungal growth measured after 72 hrs by CLSI based liquid medium dilution method; assay type: functional
[12] = target: T1, Lanosterol 14-alpha demethylase; experiment: Inhibition of CYP51 in Candida albicans ATCC SC5314 assessed as lanosterol content at 4 ug/ml measured after 48 hrs by GC-MS analysis; design: scale not given: the % may be the effect or the level left; conditions: at 4 µg/mL
[13] = system: Candida albicans; experiment: Antifungal activity against Candida albicans infected in mouse assessed as reduction in fungal endogenous infection symptoms at 20 mg/kg, ip administered on days 2,4,6,8,10,12 and measured on day 14 by GMS staining based analysis; assay type: functional, organism-based; conditions: time 13.0 day
[14] = target: T1, Lanosterol 14-alpha demethylase; experiment: Inhibition of CYP51 in Candida albicans ATCC SC5314 assessed as ergosterol content at 4 ug/ml measured after 48 hrs by GC-MS analysis (reference value: 95.61%); design: scale not given: the % may be the effect or the level left; conditions: at 4 µg/mL
[15] = system: Candida albicans; experiment: Antifungal activity against Candida albicans ATCC SC5314 assessed as inhibition of fungal growth measured after 72 hrs by CLSI based liquid medium dilution method; assay type: functional
[16] = Increase in intracellular ROS level in Candida albicans assessed as fold increase in fluorescence intensity measured after 12 hrs by fluorescence microscopic analysis relative to control; assay type: functional
[17] = Toxicity in mouse infected with Candida albicans assessed as morphological changes in lungs at 20 mg/kg, ip administered on days 2,4,6,8,10,12 and measured on day 14 by hematoxyin-eosin staining based analysis; assay type: organism-based; conditions: in vivo, 312 h, time 13 day
[18] = Toxicity in mouse infected with Candida albicans assessed as morphological changes in heart at 20 mg/kg, ip administered on days 2,4,6,8,10,12 and measured on day 14 by hematoxyin-eosin staining based analysis; assay type: organism-based; conditions: in vivo, 312 h, time 13 day
[19] = Increase in intracellular ROS level in Cryptococcus neoformans assessed as fold increase in fluorescence intensity measured after 12 hrs by fluorescence microscopic analysis relative to control; assay type: functional
[20] = Toxicity in mouse infected with Candida albicans assessed as morphological changes in liver at 20 mg/kg, ip administered on days 2,4,6,8,10,12 and measured on day 14 by hematoxyin-eosin staining based analysis; assay type: organism-based; conditions: in vivo, 312 h, time 13 day
[21] = Toxicity in mouse infected with Candida albicans assessed as morphological changes in spleen at 20 mg/kg, ip administered on days 2,4,6,8,10,12 and measured on day 14 by hematoxyin-eosin staining based analysis; assay type: organism-based; conditions: in vivo, 312 h, time 13 day
[22] = system: Candida albicans; experiment: Antifungal activity against Candida albicans infected in mouse assessed as shrinkage of fungal infection region at 20 mg/kg, ip administered on days 2,4,6,8,10,12 and measured on day 14; assay type: functional, organism-based; conditions: time 13.0 day
[23] = Toxicity in mouse infected with Candida albicans assessed as morphological changes in kidney at 20 mg/kg, ip administered on days 2,4,6,8,10,12 and measured on day 14 by hematoxyin-eosin staining based analysis; assay type: organism-based; conditions: in vivo, 312 h, time 13 day
[24] = system: Mus musculus; experiment: Immunomodulatory activity in mouse infected with Candida albicans assessed as increase in expression intensity of CD8+ T cells in spleen at 20 mg/kg, ip administered on days 2,4,6,8,10,12 and measured on day 14 by immunohistochemical staining analysis relative to control; assay type: functional, T-cell; conditions: time 13 day
[25] = Drug uptake in Candida albicans ATCC SC5314 assessed as increase in red and green fluorescence intensity measured after 10 hrs by PI/Hoechst […] staining based fluorescence microscopy; assay type: ADME
[26] = target: T2, Prostaglandin G/H synthase 2 (Homo sapiens, UniProt P35354); experiment: Inhibition of COX2 (unknown origin) assessed as reduction in PGF2alpha content using arachidonic acid as substrate preincubated for 10 mins followed by substrate addition and measured after 2 mins by enzyme immunoassay
T2 sequence (P35354 whole entry): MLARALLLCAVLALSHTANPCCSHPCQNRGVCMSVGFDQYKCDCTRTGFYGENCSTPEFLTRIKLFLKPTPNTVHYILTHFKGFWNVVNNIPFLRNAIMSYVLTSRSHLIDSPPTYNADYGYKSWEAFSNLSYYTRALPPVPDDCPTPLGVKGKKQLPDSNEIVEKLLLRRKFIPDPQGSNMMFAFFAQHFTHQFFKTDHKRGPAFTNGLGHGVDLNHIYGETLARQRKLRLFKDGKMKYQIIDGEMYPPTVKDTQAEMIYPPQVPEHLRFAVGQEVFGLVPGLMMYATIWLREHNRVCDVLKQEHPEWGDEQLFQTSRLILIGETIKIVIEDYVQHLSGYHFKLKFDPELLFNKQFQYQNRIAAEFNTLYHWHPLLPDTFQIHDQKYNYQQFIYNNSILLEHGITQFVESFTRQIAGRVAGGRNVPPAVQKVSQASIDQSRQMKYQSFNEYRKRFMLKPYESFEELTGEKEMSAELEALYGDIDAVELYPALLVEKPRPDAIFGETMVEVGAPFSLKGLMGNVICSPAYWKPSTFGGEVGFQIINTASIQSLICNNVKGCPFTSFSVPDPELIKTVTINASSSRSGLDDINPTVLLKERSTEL

`OC(Cn1cncn1)(Cn1cncn1)c1ccc(F)cc1F` [FLUCONAZOLE] gave an Activity [1] of 40.17%, an Activity [2] of 4.09% and an MIC50 [3] of 0.5 µg/mL (≈ 1.63 µM). The Activity [4] was 68.7%, the MIC50 [5] was 0.5 µg/mL (≈ 1.63 µM) and the MIC50 [6] was > 8 µg/mL. For the same molecule, the Activity [7] was 80.5 IU/L, the Activity [8] was 60.8% and the Activity [9] was 24.4 mmol/L. The Activity [10] was “Active”, the MIC50 [11] was > 8 µg/mL and the Activity [12] was 35.17%. For the same molecule, the Activity [13] was “Active”, the Activity [14] was 20.57% and the MIC50 [15] was 0.5 µg/mL (≈ 1.63 µM).

With `C[C@H](C(=O)N(C)CC(O)(Cn1ccnc1)c1ccc(Cl)cc1Cl)c1cccc(C(=O)c2ccccc2)c1` (some centres not stated) the “fold change (FC)” value [16] was 4, the Activity [17] was “Non-Toxic” and the Activity [1] was 50.87%. It also gave an Activity [2] of 2.61%, an MIC50 [3] of 0.25 µg/mL (≈ 0.466 µM) and an Activity [4] of 43.8%. For the same molecule, the Activity [18] was “Non-Toxic”, the MIC50 [5] was 0.25 µg/mL (≈ 0.466 µM) and the “fold change (FC)” value [19] was 4. For the same molecule, the Activity [20] was “Non-Toxic”, the MIC50 [6] was 2 µg/mL (≈ 3.73 µM) and the Activity [21] was “Non-Toxic”. The Activity [22] was “Active”, the Activity [23] was “Non-Toxic” and the Activity [7] was 66.5 IU/L. For the same molecule, the “fold change (FC)” value [24] was 2.12, the Activity [8] was 53.1% and the Activity [9] was 17 mmol/L. For the same molecule, the Activity [10] was “Active”, the MIC50 [11] was 1 µg/mL (≈ 1.86 µM) and the Drug uptake [25] was “Active”. For the same molecule, the Activity [12] was 38.57%, the IC50 [26] was 1930 nM and the Activity [13] was “Active”. It also gave an Activity [14] of 7.95% and an MIC50 [15] of 0.125 µg/mL (≈ 0.233 µM).

For `C[C@H](C(=O)N(C)CC(O)(Cn1ccnc1)c1ccc(Cl)cc1)c1ccc(-c2ccccc2)c(F)c1` (some centres not stated), the “fold change (FC)” value [16] was 4, the Activity [17] was “Non-Toxic” and the Activity [1] was 43.28%. It also gave an Activity [2] of 3.47%, an MIC50 [3] of 0.5 µg/mL (≈ 1.02 µM) and an Activity [4] of 44.4%. For the same molecule, the Activity [18] was “Non-Toxic”, the MIC50 [5] was 0.25 µg/mL (≈ 0.508 µM) and the “fold change (FC)” value [19] was 4. For the same molecule, the Activity [20] was “Non-Toxic”, the MIC50 [6] was 2 µg/mL (≈ 4.07 µM) and the Activity [21] was “Non-Toxic”. For the same molecule, the Activity [22] was “Active”, the Activity [23] was “Non-Toxic” and the Activity [7] was 69.5 IU/L. For the same molecule, the “fold change (FC)” value [24] was 2.12, the Activity [8] was 32.6% and the Activity [9] was 20.5 mmol/L. For the same molecule, the Activity [10] was “Active”, the MIC50 [11] was 1 µg/mL (≈ 2.03 µM) and the Drug uptake [25] was “Active”. The Activity [12] was 39.74%, the IC50 [26] was 2290 nM and the Activity [13] was “Active”. It also gave an Activity [14] of 13.51% and an MIC50 [15] of 0.125 µg/mL (≈ 0.254 µM).
